The values below come from PubChem BioAssay (NCI).

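Each compound was tested at five concentrations against cells in 96-well plates for 48 hours. At the GI50, growth is halved. At the TGI there is no net growth.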

Test systems include SR leukemia; OVCAR-8 ovarian; MOLT-4 leukemia; A498 renal; UACC-257 melanoma; KM12 colon; OVCAR-4 ovarian; HCT-15 colon; SN12C renal; SF-295 CNS.
Holding throughout (assay): inhibition of tumour cell growth, NCI panel, 48 h

In the case of `CCOC(=O)Nc1ccc2nc(Sc3ccc(Cl)cc3)sc2c1`, the GI50 with SR leukemia is 0.358 µM; with OVCAR-8 ovarian it was 7.72 µM; in the test on MOLT-4 leukemia it was 4.2 µM; in the test on A498 renal, 1.19 µM; in the test on UACC-257 melanoma it was 9.87 µM; with KM12 colon, 0.684 µM. For the same compound, the GI50 is 20.7 µM in the test with OVCAR-4 ovarian, 0.632 µM in the test on HCT-15 colon, 6.49 µM in the test with SN12C renal and 2.19 µM in the test on SF-295 CNS. Moreover, the TGI with SR leukemia was more than 32.9 µM; with OVCAR-8 ovarian, 70.4 µM; in the test on MOLT-4 leukemia, more than 87.6 µM; in the test with A498 renal, 26.8 µM; in the test with UACC-257 melanoma, 45.2 µM; in the test on KM12 colon, more than 58.8 µM. In addition, the TGI in the test on OVCAR-4 ovarian is more than 100 µM; in the test on HCT-15 colon, more than 87.3 µM; with SN12C renal it was more than 100 µM; in the test on SF-295 CNS, 33.9 µM.
Consider `N#CSc1cc(-c2nc3ccccc3o2)ccc1N`, for which the GI50 was 0.203 µM in the test on SR leukemia; 2.79 µM in the test with OVCAR-8 ovarian; 4.09 µM in the test with MOLT-4 leukemia; 31.2 µM with A498 renal; 1.77 µM in the test on UACC-257 melanoma; 6.54 µM in the test on KM12 colon. For the same compound, the GI50 in the test on OVCAR-4 ovarian was 30.5 µM; in the test on HCT-15 colon it was 23.2 µM; with SN12C renal, 15.8 µM; in the test with SF-295 CNS, 17.1 µM. In addition, the TGI was more than 100 µM in the test on SR leukemia; more than 32.5 µM in the test on OVCAR-8 ovarian; 22.1 µM in the test with MOLT-4 leukemia; more than 82.2 µM in the test with A498 renal; 26.4 µM with UACC-257 melanoma; 27.1 µM in the test on KM12 colon. Also, the TGI with OVCAR-4 ovarian is more than 100 µM; in the test with HCT-15 colon it was more than 100 µM; in the test with SN12C renal, 43.1 µM; in the test on SF-295 CNS, more than 74.1 µM.
As to `CC(=O)OC1CC2C(C)(C)C(=O)C=C[C@]2(C)C2CCC3(C)C(=CCC3[C@H](CO)C[C@H](O)C(=O)C(C)(C)O)[C@]12C` (stereo not given in full), the TGI in the test on SR leukemia was 86.2 µM; in the test with OVCAR-8 ovarian it was 33.1 µM; with MOLT-4 leukemia it was 89.5 µM; in the test with A498 renal it was 30.7 µM; in the test with UACC-257 melanoma it was 30.8 µM; in the test with KM12 colon, 39 µM. For the same compound, the TGI with OVCAR-4 ovarian was more than 100 µM; with HCT-15 colon, 40.4 µM; in the test with SN12C renal, 75.9 µM; with SF-295 CNS, 27.7 µM.
In the case of `O=C1NC(=Nc2ccccc2Cl)SC1C(=O)Nc1ccc([N+](=O)[O-])cc1[N+](=O)[O-]` (stereo not given), the TGI with SR leukemia, with OVCAR-8 ovarian, in the test on MOLT-4 leukemia, in the test with A498 renal, in the test on UACC-257 melanoma and in the test with KM12 colon was more than 100 µM each time. The TGI in the test on OVCAR-4 ovarian, in the test on HCT-15 colon, in the test with SN12C renal and in the test on SF-295 CNS was more than 100 µM throughout.
Turning to `CCN(Cc1cccc(C)c1)c1ccc(CO)c(Cl)c1`, the GI50 is 21.6 µM in the test on SR leukemia; 12.3 µM with OVCAR-8 ovarian; 18.5 µM in the test with MOLT-4 leukemia; 0.0362 µM in the test with A498 renal; 0.188 µM in the test on UACC-257 melanoma; 13.9 µM in the test with KM12 colon. Moreover, the GI50 is 0.618 µM with OVCAR-4 ovarian, 12.1 µM in the test on HCT-15 colon, 12.1 µM in the test with SN12C renal and 1.51 µM with SF-295 CNS. In addition, the TGI is more than 62 µM with SR leukemia; 28.3 µM in the test with OVCAR-8 ovarian; more than 64.3 µM in the test on MOLT-4 leukemia; 0.162 µM in the test on A498 renal; 0.525 µM in the test with UACC-257 melanoma; 27.8 µM with KM12 colon. Further, the TGI with OVCAR-4 ovarian stood at 8.22 µM; with HCT-15 colon it was 33.1 µM; with SN12C renal, 26.3 µM; with SF-295 CNS, 16.4 µM.
On to `Cn1cc(C2=C(c3cccc(Cl)c3)C(=O)NC2=O)c2ccccc21`, for which the GI50 was 13.9 µM in the test on SR leukemia; more than 25 µM in the test with OVCAR-8 ovarian; 15.8 µM in the test with MOLT-4 leukemia; 8.25 µM in the test with A498 renal; 5.46 µM with UACC-257 melanoma; more than 25 µM with KM12 colon. For the same compound, the GI50 in the test with OVCAR-4 ovarian is more than 22.6 µM; with HCT-15 colon it was more than 25 µM; with SN12C renal, 20.6 µM; in the test on SF-295 CNS, more than 25 µM. For the same compound, the TGI with SR leukemia was more than 25 µM; with OVCAR-8 ovarian, more than 25 µM; in the test with MOLT-4 leukemia, more than 25 µM; in the test on A498 renal, more than 25 µM; in the test on UACC-257 melanoma, 17.7 µM; in the test with KM12 colon, more than 25 µM. Further, the TGI in the test on OVCAR-4 ovarian, with HCT-15 colon, in the test with SN12C renal and with SF-295 CNS was more than 25 µM in each case.
Take `S=C1NC2=C(CCOc3c2ccc2ccccc32)C(c2ccc(Cl)cc2)N1` (stereo not given): the GI50 in the test on SR leukemia is 30.6 µM; in the test on OVCAR-8 ovarian it was 44.7 µM; in the test with MOLT-4 leukemia, 25.2 µM; in the test on A498 renal, 26.2 µM; in the test with UACC-257 melanoma, 45.4 µM; in the test on KM12 colon it was 47.5 µM. In addition, the GI50 is more than 100 µM in the test on OVCAR-4 ovarian, 14.3 µM in the test on HCT-15 colon, 25.8 µM with SN12C renal and 31.9 µM with SF-295 CNS. Also, the TGI in the test on SR leukemia is more than 100 µM; in the test on OVCAR-8 ovarian, more than 100 µM; in the test on MOLT-4 leukemia it was more than 100 µM; in the test on A498 renal, 68 µM; with UACC-257 melanoma, more than 100 µM; in the test with KM12 colon it was more than 100 µM. The TGI in the test with OVCAR-4 ovarian is more than 100 µM; with HCT-15 colon it was 86 µM; in the test with SN12C renal, 66 µM; with SF-295 CNS, more than 100 µM.
Turning to `c1ccc(-c2nn(-c3ccccc3)[n+](-c3ccccc3-c3ccccc3)n2)cc1`, the GI50 was 1.22 µM in the test on SR leukemia; 0.757 µM in the test with OVCAR-8 ovarian; 1.8 µM in the test on MOLT-4 leukemia; 1.65 µM in the test on A498 renal; 0.339 µM in the test on UACC-257 melanoma; 0.532 µM in the test on KM12 colon. In addition, the GI50 was 0.382 µM in the test with OVCAR-4 ovarian, 21.5 µM in the test on HCT-15 colon, 1.82 µM with SN12C renal and 1.94 µM in the test on SF-295 CNS. For the same compound, the TGI in the test on SR leukemia amounted to 10.9 µM; in the test with OVCAR-8 ovarian, 12.5 µM; in the test on MOLT-4 leukemia, 17.6 µM; in the test with A498 renal it was 9.04 µM; in the test with UACC-257 melanoma it was 2.72 µM; in the test with KM12 colon, 11 µM. The TGI was 24.5 µM with OVCAR-4 ovarian, more than 100 µM in the test on HCT-15 colon, 15.5 µM in the test with SN12C renal and 8.99 µM in the test with SF-295 CNS.
